This passage reports melting point and IC50 results from patent US6846810B2, “Antiviral nucleoside derivatives” (Roche Palo Alto LLC, priority 2002, dated 2005).

pIC50: −log10 of the molar value.

By melting point is commonly meant the temperature, or range, at which the solid turns liquid. What is called pIC50 is the negative decadic logarithm of the IC50, by convention in mol/L.

System in the first data set: not given
Experiment: not given
Conditions: not given
On to `CCCCOC(=O)Nc1ccn([C@@H]2O[C@@](CO)(N=[N+]=[N-])[C@@H](O)[C@H]2O)c(=O)n1`, for which the melting point lay in the range of 86.5 to 94 °C.
Same read-out and setting: for `CCCCCC(=O)O[C@H]1[C@@H](n2ccc(N)nc2=O)O[C@@](CO)(N=[N+]=[N-])[C@H]1OC(=O)CCCCC.CS(=O)(=O)O` the value was 127.3 to 128.6 °C; for `CCC(=O)OC[C@@]1(N=[N+]=[N-])O[C@H](n2ccc(N)nc2=O)[C@H](OC(=O)CC)[C@@H]1OC(=O)CC.Cl`, 72 to 75.2 °C; for `[N-]=[N+]=N[C@]1(CO)O[C@@H](n2ccc(NC(=O)c3ccccc3)nc2=O)[C@H](O)[C@@H]1O`, 108.1 to 118.2 °C.
Same read-out and setting: for `CCCCCCCCCCCCC(=O)OC[C@]1(N=[N+]=[N-])OC(n2ccc(N)nc2=O)[C@H](O)[C@@H]1O.Cl` (some centres unmarked) the value was 178.6 to 179.4 °C; for `CCCC(=O)O[C@H]1[C@@H](n2ccc(N)nc2=O)O[C@@](CO)(N=[N+]=[N-])[C@H]1OC(=O)CCC.Cl`, 154.6 to 155.6 °C.
On the same count and under the same terms, for `CCCCCCCCNC(=O)OC[C@@]1(N=[N+]=[N-])O[C@H](n2ccc(N)nc2=O)[C@H](O)[C@@H]1O.Cl` the value was 164.9 to 168.5 °C; for `COC(=O)Nc1ccn([C@H]2O[C@@](CO)(N=[N+]=[N-])[C@@H](O)[C@H]2O)c(=O)n1`, 141.1 to 141.8 °C; for `CC(=O)OC[C@@]1(N=[N+]=[N-])O[C@H](n2ccc(N)nc2=O)[C@H](OC(C)=O)[C@@H]1OC(C)=O.Cl`, 88 to 90.9 °C.
`CCCC(=O)OC[C@@]1(N=[N+]=[N-])O[C@H](n2ccc(N)nc2=O)[C@H](OC(=O)CCC)[C@@H]1OC(=O)CCC.Cl` displayed a melting point of 167.5 to 170.6 °C.
Same read-out and setting: the figure for `Cc1ccc(C(=O)OC[C@@]2(N=[N+]=[N-])O[C@H](n3ccc(N)nc3=O)[C@H](O)[C@@H]2O)cc1.Cl` is 187 to 189 °C; for `CCC(=O)OC[C@@]1(N=[N+]=[N-])O[C@H](n2ccc(N)nc2=O)[C@H](OC(=O)CC)[C@@H]1OC(=O)CC.CS(=O)(=O)O` it is 149 to 153 °C; for `CC(=O)Nc1ccn([C@@H]2O[C@@](CO)(N=[N+]=[N-])[C@@H](O)[C@H]2O)c(=O)n1` it is 94 to 96.8 °C.
Same read-out and setting: for `CC(C)(C)C(=O)OC[C@]1(N=[N+]=[N-])O[C@@H](n2ccc(N)nc2=O)[C@@H](OC(=O)C(C)(C)C)[C@H]1OC(=O)C(C)(C)C.Cl` the value was 136.2 to 140 °C.
The same measure, in the same setting: for `CCCCC(=O)OC[C@@]1(N=[N+]=[N-])O[C@H](n2ccc(N)nc2=O)[C@H](O)[C@@H]1O.Cl` the value was 62.1 to 87.7 °C.
As to `Cl.[N-]=[N+]=N[C@]1(COC(=O)c2ccccc2)O[C@H](n2ccc(N)nc2=O)[C@H](O)[C@@H]1O`, the melting point is 163 to 166.5 °C.
Turning to `CCCCC(=O)O[C@H]1[C@@H](n2ccc(N)nc2=O)O[C@@](CO)(N=[N+]=[N-])[C@H]1OC(=O)CCCC.Cl`, the melting point fell in the range of 124.3 to 128.4 °C.
Still for that read-out and setting: the figure for `CCCCC(=O)OC[C@@]1(N=[N+]=[N-])O[C@H](n2ccc(N)nc2=O)[C@H](OC(=O)CCCC)[C@@H]1OC(=O)CCCC.Cl` [Compound 46, (S)-1-((3R,4S,5R)-5-Azido-3,4-bis-pentanoyloxy-5-pentanoyloxymethyl-tetrahydro-furan-2-yl)-2-oxo-1,2-dihydro-pyrimidin-4-yl-ammonium; chloride] is 72.9 to 74.7 °C; for `CCC(=O)O[C@H]1[C@@H](n2ccc(N)nc2=O)O[C@@](CO)(N=[N+]=[N-])[C@H]1OC(=O)CC.Cl` it is 194.6 to 198.2 °C.
Still for that read-out and setting: the figure for `CCCCCCOC(=O)OC[C@@]1(N=[N+]=[N-])O[C@H](n2ccc(N)nc2=O)[C@H](O)[C@@H]1O.O=C(O)C(F)(F)F` is 71 to 103.9 °C; for `CCCCCCOC(=O)Nc1ccn([C@H]2O[C@@](CO)(N=[N+]=[N-])[C@@H](O)[C@H]2O)c(=O)n1` it is 134.4 to 136 °C.
The same measure, in the same setting: the figure for `CC(=O)Nc1ccn([C@@H]2O[C@@](COC(C)=O)(N=[N+]=[N-])[C@@H](OC(C)=O)[C@H]2OC(C)=O)c(=O)n1` is 77 to 80.1 °C.
In turn, `Cl.[N-]=[N+]=N[C@]1(COC(=O)c2ccccc2)O[C@H](n2ccc(N)nc2=O)[C@H](OC(=O)c2ccccc2)[C@@H]1OC(=O)c1ccccc1` displayed a melting point of 208.9 to 210.3 °C.
The same measure, in the same setting: for `CCCCCCCCCC(=O)OC[C@@]1(N=[N+]=[N-])O[C@H](n2ccc(N)nc2=O)[C@H](O)[C@@H]1O.Cl` the value was 180.6 to 181.2 °C.
Same read-out and setting: the figure for `CCC(=O)OC[C@@]1(N=[N+]=[N-])O[C@@H](n2ccc(N)nc2=O)[C@H](OC(=O)CC)[C@@H]1OC(=O)CC` is 75.9 to 79.9 °C; for `CCCCCCCCCCCC(=O)OC[C@@]1(N=[N+]=[N-])O[C@H](n2ccc(N)nc2=O)[C@H](O)[C@@H]1O.Cl` it is 154 to 155 °C.
On the same count and under the same terms, the figure for `CCCCCCCCOC(=O)OC[C@@]1(N=[N+]=[N-])O[C@H](n2ccc(N)nc2=O)[C@H](O)[C@@H]1O.O=C(O)C(F)(F)F` is 70.5 to 81 °C.
Consider `CCCC(=O)O[C@H]1[C@@H](n2ccc(N)nc2=O)O[C@@](CO)(N=[N+]=[N-])[C@H]1OC(=O)CCC.O=C(O)C(F)(F)F`, for which the melting point is 91 to 94.9 °C.
The same measure, in the same setting: for `CC(C)CC(=O)OC[C@@]1(N=[N+]=[N-])O[C@H](n2ccc(N)nc2=O)[C@H](OC(=O)CC(C)C)[C@@H]1OC(=O)CC(C)C.Cl` the value was 142 to 142.8 °C; for `CCCCCCCCCOC(=O)OC[C@@]1(N=[N+]=[N-])O[C@H](n2ccc(N)nc2=O)[C@H](O)[C@@H]1O.Cl`, 174.7 to 176.1 °C; for `CCCCCCCCCCOC(=O)OC[C@@]1(N=[N+]=[N-])O[C@H](n2ccc(N)nc2=O)[C@H](O)[C@@H]1O.O=C(O)C(F)(F)F` [Compound 86, (S)-1-((3R,4S,5R)-5-Azido-5-decyloxycarbonyloxymethyl-3,4-dihydroxy-tetrahydro-furan-2-yl)-2-oxo-1,2-dihydro-pyrimidin-4-yl-ammonium; trifluoro-acetate], 75 to 77.7 °C.
Still for that read-out and setting: for `CC(C)(C)C(=O)Nc1ccn([C@@H]2O[C@@](COC(=O)C(C)(C)C)(N=[N+]=[N-])[C@@H](OC(=O)C(C)(C)C)[C@H]2OC(=O)C(C)(C)C)c(=O)n1` [Compound 5, 2,2-Dimethyl-propionic acid (2R,3S,4R,5R)-2-azido-5-[4-(2,2-dimethyl-propionylamino)-2-oxo-2H-pyrimidin-1-yl]-3,4-bis-(2,2-dimethyl-propionyloxy)-tetrahydro-furan-2-ylmethyl ester] the value was 67.4 to 80 °C.
For the molecule `CC(C)(C)C(=O)Nc1ccn([C@@H]2O[C@@](CO)(N=[N+]=[N-])[C@@H](O)[C@H]2O)c(=O)n1`, the melting point fell in the range of 108 to 114 °C.
On the same count and under the same terms, for `CCCCCCCOC(=O)OC[C@@]1(N=[N+]=[N-])O[C@H](n2ccc(N)nc2=O)[C@H](O)[C@@H]1O.O=C(O)C(F)(F)F` the value was 90.9 to 94.6 °C.
On the same count and under the same terms, the figure for `Cl.[N-]=[N+]=N[C@]1(CO)O[C@H](n2ccc(N)nc2=O)[C@H](OC(=O)c2ccccc2)[C@@H]1OC(=O)c1ccccc1` is 166.2 to 168.1 °C.
The same measure, in the same setting: for `CC(C)(C)OC(=O)Nc1ccn([C@@H]2O[C@@](CO)(N=[N+]=[N-])[C@@H](O)[C@H]2O)c(=O)n1` the value was 80 to 83.5 °C; for `CCCCC(=O)O[C@H]1[C@@H](n2ccc(N)nc2=O)O[C@@](CO)(N=[N+]=[N-])[C@H]1OC(=O)CCCC.CS(=O)(=O)O`, 115.3 to 120.1 °C; for `CC(C)C(=O)O[C@H]1[C@@H](n2ccc(N)nc2=O)O[C@@](CO)(N=[N+]=[N-])[C@H]1OC(=O)C(C)C.Cl`, 191.1 to 191.9 °C.

Another data set deals with HCV replicon RNA (Renilla luciferase HCV replicon cells 2209-23). Nature of the data set: Renilla luciferase assay (HCV replicon). The class given is cell-based, Hepatitis C virus. As to conditions: Huh-7, 72 h; 2209-23 replicon cells (human hepatoma Huh7), three days incubation, 50% reduction of replicon level. In general terms: A replicon is a self-replicating genome or part of one, used to study replication in cells.
Turning to `CC(C)(C)C(=O)Nc1ccn([C@@H]2O[C@@](COC(=O)C(C)(C)C)(N=[N+]=[N-])[C@@H](OC(=O)C(C)(C)C)[C@H]2OC(=O)C(C)(C)C)c(=O)n1` [Compound 5, 2,2-Dimethyl-propionic acid (2R,3S,4R,5R)-2-azido-5-[4-(2,2-dimethyl-propionylamino)-2-oxo-2H-pyrimidin-1-yl]-3,4-bis-(2,2-dimethyl-propionyloxy)-tetrahydro-furan-2-ylmethyl ester], the pIC50 is 5.27.
On the same count and under the same terms, the figure for `CC(C)C(N)C(=O)OC[C@@]1(N=[N+]=[N-])O[C@@H](n2ccc(N)nc2=O)[C@H](O)[C@@H]1O` (stereo partly drawn) [Compound 18, 1-[(2R,3S,4R,5R)-5-(4-Amino-2-oxo-2H-pyrimidin-1-yl)-2-azido-3,4-dihydroxy-tetrahydro-furan-2-ylmethoxycarbonyl]-2-methyl-propyl-ammonium; chloride] is 5.62; for `[N-]=[N+]=N[C@]1(COC(=O)c2ccccc2)O[C@@H](n2ccc(N)nc2=O)[C@H](OC(=O)c2ccccc2)[C@@H]1OC(=O)c1ccccc1` [Compound 25, Benzoic acid (2R,3S,4R,5R)-3,4-dibenzoyloxy-5-(4-amino-2-oxo-2H-pyrimidin-1-yl)-2-azido-tetrahydro-furan-2-ylmethyl ester] it is 5.61.
